{"source": "patent US20080300147A1", "about": "“Detection and Treatment of Fibrotic Disorders” (priority 2004, published 2008)", "key": {"[1]": {"system": "myometrial smooth muscle cells (MSMC)", "assay": "Realtime PCR mRNA expression in treated MSMC", "type": "cell-based, human", "description": "Isolation and Culture of Leiomyoma and Myometrial Smooth Muscle Cells. […] Only untreated tissues were used for isolation of LSMC and MSMC. […] LSMC and MSMC were cultured in 6-well plates at an approximate density of 10^6 cells/well in DMEM-supplemented media containing 10% FBS. After reaching visual confluence, the cells were washed in serum-free media and incubated for 24 hrs under serum-free, phenol red-free condition (Chegini, N et al. Mol Hum Reprod, 2002, 8:1071-8).\n(§1) Quantitative RealTime PCR. Realtime PCR was utilized for verification of 10 differentially expressed and regulated genes identified in leiomyoma and myometrium as well as LSMC and MSMC from untreated and GnRHa-treated cohorts. The selection of these genes was based not only on their expression values (up or downregulation), but classification and biological functions important to leiomyoma growth and regression, regulation by ovarian steroids, GnRHa and TGF-β. They are IL-11, CITED2, Nur77, EGR3, TGIF, TIEG, p27, p57, GAS-1 and GPRK5 representing cytokines, transcription factors, cell cycle regulators and signal transduction.\nDetermination of TGF-β1 on global gene expression in LSMC and MSMC. All the materials utilized for this study including isolation of leiomyoma and myometrial cells are identical to those described in detail above. To determine the effect of TGF-β1 on global gene expression in LSMC and MSMC, the cells were cultured in 6-well plates at approximate density of 10^6 cells/well in DMEM-supplemented media containing 10% FBS. […] The cells were then treated with 2.5 ng/ml of TGF-β1 (R & D System, Minneapolis, […].) for 2, 6 and 12 hours. […] The cells were washed and then treated with TGF-β1 (2.5 ng/ml) for 2 hours. Parallel experiments using untreated cells were used as controls including an additional control for TGF-β type II receptor antisense and sense experiments.\nTotal cellular RNA was isolated from LSMC- and MSMC-treated and untreated controls and subjected to microarray analysis. To maintain standard and allow for comparative analysis, the GeneChips used in this study were utilized, simultaneously processed and their gene expression values were subjected to global normalization and transformation. Following these unsupervised assessments the coefficient of variation was calculated for each probe set across all the chips used in this study, and the selected gene expression values of this study were independently subjected to supervised learning including R programming analysis and ANOVA with false discovery rate selected at p<0.001 (Moustakas, A. Immunol Lett, 2002, 82:85-91; Verrecchia, F. et al. J Biol Chem, 2001, 276:17058-17062). The genes identified in these cohorts were analyzed for functional annotation and visualized using Database for Annotation, Visualization, and Integrated Discovery (DAVID) software with integrated GoCharts. Following the analysis, we selected 12 of the differentially expressed and regulated genes, including 10 identified and validated in leiomyoma and myometrium from untreated and GnRHa-treated cohorts, as well as LSMC and MSMC treated in vitro with GnRHa, for validation in response to TGF-β-time dependent action using Realtime PCR. They include IL-11, EGR3, CITED2, TIEG, TGIF, Nur77, p27, p57, GAS-1 and GPRK5. In addition, the expression of Runx1 and Runx2, transcription factors that interact with TGF-β receptor signaling pathways (Zavadil, J. et al. Proc Natl Acad Sci USA, 2001, 98:6686-6691), was validated in LSMC and MSMC as well as in leiomyoma and myometrium from GnRHa-treated and untreated cohorts. Detail description of the materials and methods for Realtime PCR as well as data analysis is provided in Chegini, N. et al. J Soc Gynecol Investig, 2003, 10:161-71.\nIsolation and Culture of Leiomyoma and Myometrial Smooth Muscle Cells. Leiomyoma and myometrial smooth muscle cells (LSMC and MSMC) were isolated and cultured as previously described (Chegini, N. et al. Mol Hum Reprod, 2002, 8:1071-1078). […]"}, "[2]": {"system": "leiomyoma", "assay": "Realtime PCR mRNA expression in leiomyoma, GnRHa therapy vs untreated", "type": "in vivo, human", "source_text": "(§2) Tissues. Portions of leiomyoma and matched myometrium were collected from premenopausal women (N=6) who were scheduled to undergo hysterectomy for indications related to symptomatic leiomyomas. Three of the patients received GnRHa therapy for three months prior to surgery. […] To maintain a standard, all leiomyomas selected for this study were between 2 to 3 cm in diameter. […] The tissues were collected at the University of Florida affiliated Shands Hospital with prior approval obtained from the Institutional Review Board.\nas §1\n(§3) Portions of leiomyoma and matched myometrium were collected from premenopausal women (N=27) who were scheduled to undergo hysterectomy for symptomatic uterine leiomyomas at the University of Florida affiliated Shands Hospital. Of these patients seven received GnRHa therapy for a period of three months prior to surgery. […] To maintain a standard, leiomyomas used in this study were 2 to 3 cm in diameter. Prior approval was obtained from the University of Florida Institutional Review Board for the experimental protocol of this study.\n(§4) Portions of leiomyoma and matched myometrium were collected from premenopausal women (N=27) who were scheduled to undergo hysterectomy for symptomatic uterine leiomyomas at the University of Florida affiliated Shands Hospital. Of these patients, seven received GnRHa therapy for a period of three months prior to surgery. […] To maintain a standard, leiomyomas used in this study were 2 to 3 cm in diameter. Prior approval was obtained from the University of Florida Institutional Review Board for the experimental protocol of this study.\n(§5) Realtime PCR. Briefly, total RNA was isolated from leiomyoma and matched myometrium using Trizol Reagent (INVITROGEN, Carlsbad, Calif.) and complimentary DNA was generated from 2 μg of total RNA using Taqman reverse transcription reagent. The newly synthesized cDNA was used for PCR performed in 96-well optical reaction plates with cDNA equivalent to 100 ng RNA in a volume of 50 μl reaction containing 1× Taqman Universal Master Mix, optimized concentrations of FAM-labeled probe and specific forward and reverse primer for FMOD selected from Assay on Demand (APPLIED BIOSYSTEMS). Controls included RNA subjected to RT-PCR without reverse transcriptase and PCR with water replacing cDNA."}, "[3]": {"system": "myometrium", "assay": "Realtime PCR mRNA expression in myometrium, GnRHa therapy vs untreated", "type": "in vivo, human", "source_text": "as §2, §1, §3, §4, §5"}, "[4]": {"conditions": "GnRHa 0.1 μM, 2, 6 and 12 hours"}, "[5]": {"conditions": "GnRHa therapy three months (N=7) vs untreated"}, "[6]": {"conditions": "GnRHa therapy three months vs untreated"}}}
{"compound": "CCNC(=O)[C@@H]1CCCN1C(=O)[C@H](CCCNC(=N)N)NC(=O)[C@H](CC(C)C)NC(=O)[C@@H](CC(C)C)NC(=O)[C@H](Cc1ccc(O)cc1)NC(=O)[C@H](CO)NC(=O)[C@H](Cc1c[nH]c2ccccc12)NC(=O)[C@H](Cc1c[nH]cn1)NC(=O)[C@@H]1CCC(=O)N1", "note": "[GnRHa, leuprolide acetate]", "values": [{"measurement": "CITED2 expression in MSMC", "setting": "[1]; [4]", "result": "biphasic effect"}, {"measurement": "GPRK5 expression in MSMC", "setting": "[1]; [4]", "result": "inhibits"}, {"measurement": "Runx1 expression in MSMC", "setting": "[1]; [4]", "result": "time-dependent inhibition"}, {"measurement": "Runx2 expression in MSMC", "setting": "[1]; [4]", "result": "time-dependent inhibition"}, {"measurement": "CCN2 mRNA expression in MSMC", "setting": "[1]; GnRHa 0.1 μM, 2, 6 and 12 hrs", "result": "inhibited"}, {"measurement": "CCN3 mRNA expression in MSMC", "setting": "[1]; GnRHa 0.1 μM, 2, 6 and 12 hrs", "result": "inhibited"}, {"measurement": "CCN4 mRNA expression in MSMC", "setting": "[1]; GnRHa 0.1 μM, 2, 6 and 12 hrs", "result": "inhibited"}, {"measurement": "S100A4 mRNA expression in MSMC", "setting": "[1]; GnRHa 0.1 μM, 2, 6 and 12 hrs", "result": "inhibited"}, {"measurement": "fibulin-1C mRNA expression in MSMC", "setting": "[1]; GnRHa 0.1 μM, 2, 6 and 12 hrs", "result": "inhibited"}, {"measurement": "FMOD expression in MSMC", "setting": "[1]; GnRHa 0.1 μM, 2 and 6 hrs", "result": "no significant effect"}, {"measurement": "FMOD expression in MSMC", "setting": "[1]; GnRHa 0.1 μM, 12 hrs", "result": "inhibited"}, {"measurement": "IL-11 expression in MSMC", "setting": "[1]; GnRHa 0.1 μM, within 2 to 6 hours, control levels after 12 hours", "result": "increased"}, {"measurement": "Nur77 expression in MSMC", "setting": "[1]; GnRHa 0.1 μM, subsequently declined to control levels", "result": "rapid induction"}, {"measurement": "FMOD mRNA expression in leiomyoma", "setting": "[2]; [5]", "result": "significantly reduced"}, {"measurement": "CCN2 mRNA expression in leiomyoma", "setting": "[2]; [6]", "result": "alters"}, {"measurement": "CCN3 mRNA expression in leiomyoma", "setting": "[2]; [6]", "result": "without affecting"}, {"measurement": "CCN4 mRNA expression in leiomyoma", "setting": "[2]; [6]", "result": "without affecting"}, {"measurement": "fibulin-1C mRNA expression in leiomyoma", "setting": "[2]; [6]", "result": "without affecting"}, {"measurement": "CITED2 expression in leiomyoma", "setting": "[2]; GnRHa therapy vs untreated", "result": "increased"}, {"measurement": "GPRK5 expression in leiomyoma", "setting": "[2]; GnRHa therapy vs untreated", "result": "inhibits"}, {"measurement": "IL-11 expression in leiomyoma", "setting": "[2]; GnRHa therapy vs untreated", "result": "suppressed"}, {"measurement": "Nur77 expression in leiomyoma", "setting": "[2]; GnRHa therapy vs untreated", "result": "significant elevation"}, {"measurement": "FMOD mRNA expression in myometrium", "setting": "[3]; [5]", "result": "significantly reduced"}, {"measurement": "CCN3 mRNA expression in myometrium", "setting": "[3]; [6]", "result": "significant reduction"}, {"measurement": "CCN4 mRNA expression in myometrium", "setting": "[3]; [6]", "result": "significant reduction"}, {"measurement": "S100A4 mRNA expression in myometrium", "setting": "[3]; [6]", "result": "significant reduction"}, {"measurement": "CITED2 expression in myometrium", "setting": "[3]; GnRHa therapy vs untreated", "result": "increased"}, {"measurement": "GPRK5 expression in myometrium", "setting": "[3]; GnRHa therapy vs untreated", "result": "inhibits"}, {"measurement": "IL-11 expression in myometrium", "setting": "[3]; GnRHa therapy vs untreated", "result": "suppressed"}, {"measurement": "Nur77 expression in myometrium", "setting": "[3]; GnRHa therapy vs untreated", "result": "significant elevation"}]}
